Tests used:
[1] = human, microsomes
[2] = in vitro; settings: mouse, liver microsomes, F
[3] = in vitro; settings: rat, liver microsomes
[4] = in vitro; settings: mouse, liver microsomes
[5] = in vitro; settings: rat, liver microsomes, F
[6] = mouse, microsomes
[7] = in vitro; settings: human, liver microsomes
[8] = in vitro; settings: human, liver microsomes, F
[9] = rat, microsomes
[10] = Half-life in ICR mouse at 10 mg/kg, po measured upto 24 hrs by LC-MS/MS analysis; format: ADME, organism-based; settings: in vivo
[11] = Drug distribution in ICR mouse heart at 10 mg/kg, po measured after 1 hr by LC-MS/MS analysis; format: ADME, organism-based; settings: in vivo
[12] = Drug distribution in ICR mouse kidney at 10 mg/kg, po measured after 1 hr by LC-MS/MS analysis; format: ADME, organism-based; settings: in vivo
[13] = Drug distribution in ICR mouse colon at 10 mg/kg, po measured after 1 hr by LC-MS/MS analysis; format: ADME, organism-based; settings: in vivo
[14] = Drug distribution in ICR mouse liver at 10 mg/kg, po measured after 1 hr by LC-MS/MS analysis; format: ADME, organism-based; settings: in vivo
[15] = Tmax in ICR mouse at 10 mg/kg, po measured upto 24 hrs by LC-MS/MS analysis; format: ADME, organism-based; settings: in vivo
[16] = Drug distribution in ICR mouse brain at 10 mg/kg, po measured after 1 hr by LC-MS/MS analysis; format: ADME, organism-based; settings: in vivo
[17] = Cmax in ICR mouse at 10 mg/kg, po measured upto 24 hrs by LC-MS/MS analysis; format: ADME, organism-based; settings: in vivo
[18] = Drug distribution in ICR mouse spleen at 10 mg/kg, po measured after 1 hr by LC-MS/MS analysis; format: ADME, organism-based; settings: in vivo
[19] = Drug distribution in ICR mouse lung at 10 mg/kg, po measured after 1 hr by LC-MS/MS analysis; format: ADME, organism-based; settings: in vivo
[20] = mouse, microsomes; remark: listed apart in the source
[21] = human, microsomes; remark: listed apart in the source
[22] = rat, microsomes; remark: listed apart in the source

Compound `COC(c1ccc(F)cc1C(F)(F)F)c1cnc2n1CCN(c1cn[nH]c(=O)c1Cl)C2` (centres undefined) has a CLH [1] of 50.6 mL/min/g, a Fh [2] of 45% and a half-life [3] of 34.7 min. For the same compound, the half-life [4] was 38.7 min, the Fh [5] was 42.3% and the CLH [6] was 54.2 mL/min/g. It also gave a half-life [7] of 41.5 min, a Fh [8] of 27.9% and a CLH [9] of 60.5 mL/min/g.
Work on `COC(c1ccc(F)cc1Cl)c1cnc2n1CCN(c1cn[nH]c(=O)c1Cl)C2` (stereo in doubt; 12) yielded a CLH [1] of 17.7 mL/min/g, a half-life [10] of 118 min and a Fh [2] of 49.7%. The half-life ([3]; t1/2) was 21.6 min, the Drug uptake [11] was “Active” and the Drug uptake [12] was “Active”. The Drug uptake [13] was “Active”, the Drug uptake [14] was “Active” and the half-life ([4]; t1/2) was 46.7 min. For the same compound, the Fh [5] was 31.4%, the CLH [6] was 45 mL/min/g and the Tmax [15] was 60 min. The half-life ([7]; t1/2) was 119 min, the Drug uptake [16] was “Not Active” and the Cmax [17] was 1.15 µg/mL. The Fh [8] was 52.5%, the CLH [9] was 97.3 mL/min/g and the Drug uptake [18] was “Active”. For the same compound, the Drug uptake [19] was “Active”.
Work on `COC(c1ccc(F)cc1Cl)c1cnc2n1CCN(c1cn[nH]c(=O)c1Cl)C2` (stereo in doubt; 12-2) yielded a CLH [1] of 17.5 mL/min/g, a CLH [6] of 41.8 mL/min/g and a t1/2 [20] of 50.3 min. The CLH [9] was 142 mL/min/g, the t1/2 [21] was 120 min and the t1/2 [22] was 14.8 min.
